US20220119355A1, “SATURATED-RING-FUSED DIHYDROPYRIMIDINONE OR DIHYDROTRIAZINONE COMPOUNDS AND PHARMACEUTICAL USE THEREOF” (Japan Tobacco Inc., priority 2018, published 2022)

Key:
[1] = target: T1, human RORγ (Homo sapiens, UniProt P51449); assay: In-vitro reporter gene assay for inhibitory activity against RORγ transcription, Test Method A (GAL4-hRORγ LBD / pG5-Luc in CHO cells); assay type: cell-based; conditions: luciferase reporter, 2 days
T1 construct: from Ser253 to Lys518 for human RORγ; expressed in transfected cells; host or cells: CHO cells (transient co-transfection with pG5-Luc)
T1 sequence (P51449 253-518): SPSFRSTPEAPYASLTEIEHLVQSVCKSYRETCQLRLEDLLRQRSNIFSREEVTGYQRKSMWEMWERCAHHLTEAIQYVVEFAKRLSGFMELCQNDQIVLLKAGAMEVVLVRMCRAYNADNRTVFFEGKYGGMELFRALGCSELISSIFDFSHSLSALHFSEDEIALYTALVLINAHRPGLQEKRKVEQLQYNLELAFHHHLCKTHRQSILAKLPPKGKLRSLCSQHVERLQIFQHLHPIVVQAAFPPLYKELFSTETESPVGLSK
Method: (§1) In-Vitro Assay for Inhibitory Activity Against RORγ Transcription
(§2) Inhibitory activity against RORγ transcription was assessed for test compounds by either of the following Test Method A or B of reporter gene assay.
(§3) cDNAs encoding human and mouse RORγ ligand binding domains (LBD) were obtained based on the sequences of human RORγ (Genbank registered number NM_005060.3) and mouse RORγ (Genbank registered number NM_011281.2) (LBD sequences: from Ser253 to Lys518 for human RORγ; from Ile251 to Lys516 for mouse RORγ).
(§4) LBD cDNAs of human and mouse RORγ were inserted into pFA-CMV vector (Stratagene), which expresses GAL4-DNA binding domain fusion protein. The resulting plasmids are hereinafter referred to as GAL4-hRORγ plasmid and GAL4-mRORγ plasmid, respectively.
(§5) GAL4-hRORγ plasmid or GAL4-mRORγ plasmid was transiently co-transfected into Chinese hamster ovary cells (CHO cells) with pG5-Luc (Promega), reporter plasmid expressing firefly luciferase in a GAL4-dependent manner.
(§6) TransIT (Registered trademark) CHO Transfection Kit (Mirus) was used to co-transfect CHO cells with the plasmids. One day prior to the assay, CHO cells were suspended in HAM F-12 Nutrient medium containing 10% (v/v) fetal bovine serum and seeded at 6×10^6 cells per 175 cm^2 cell culture flask each. 54 μL of TransIT (Registered trademark) CHO reagent was added into a 15 mL tube containing 1.16 mL of HAM F-12 Nutrient medium without fetal bovine serum, and then mixed and incubated at room temperature for 10 minutes. 36 μL of a plasmid solution containing 400 ng of GAL4-hRORγ plasmid, 9000 ng of pG5-Luc plasmid, and 8600 ng of pcDNA3 plasmid were added into the tube and mixed gently. In the case of mouse assay, a plasmid solution containing 250 ng of GAL4-mRORγ plasmid, 9000 ng of pG5-Luc plasmid, and 8750 ng of pcDNA3 plasmid was added, instead. The mixture was incubated at room temperature for 10 minutes. 9 μL each of CHO Mojo Reagent were then added into each tube and mixed gently. The mixture was incubated at room temperature for 10 minutes. The resulting transfection reagent was applied to the cell culture. After incubation at 37° C., 5% CO2 for 4 hours, the plasmid-transfected CHO cells were harvested by trypsin treatment. The collected cells were resuspended in culture medium and plated into a 384-well-white plate at 8,000 cells/50 μL/well. The plate was let stand at room temperature for 1 hour and then further incubated at 37° C., 5% CO2 for 3 hours. A test compound was dissolved in DMSO to obtain a concentration of 10 mM. Each solution was serially diluted with DMSO and further diluted with culture medium just before use. The test compound solutions were added. to the cells in the plate at 8 different concentrations. The final concentration of DMSO was 0.2% (v/v). After the addition of test compound, the cells were incubated at […], 5% CO2 for 2 days.
(§7) RORγ transcriptional activity was detected as the intracellular luciferase activity using SteadyLite HTS Reporter Gene Assay System (Perkin Elmer). SteadyLite Reagent was diluted five-fold with Extension buffer (10 mM Tricine, 0.2% (w/v) bovine serum albumin, 0.02% (v/v) Tween-20) to obtain a luciferase substrate solution. After the measurement of the cell viability with Resazurin, the medium was removed in the plate and the luciferase substrate solution was added thereto. After the incubation at room temperature for 10 minutes, luminescence of each well was measured with a microplate reader. The luciferase activity derived from the luminescence count in a vehicle-control well treated with 0.2% DMSO alone was defined as 100%, and the luciferase activity after treatment with the test compound was calculated as a percentage, %-of-control, based on the value of the vehicle-control. An EC50 value of the test compound was calculated by curve fitting with GraphPad Prism. The luminescence counts at the concentration of test compound where cytotoxicity was observed were excluded from data analysis. […]

[2] = target: T2, mouse RORγ (Mus musculus, UniProt P51450); assay: In-vitro reporter gene assay for inhibitory activity against RORγ transcription, Test Method A (GAL4-mRORγ LBD / pG5-Luc in CHO cells); assay type: cell-based; conditions: luciferase reporter, 2 days
T2 construct: from Ile251 to Lys516 for mouse RORγ; expressed in transfected cells; host or cells: CHO cells (transient co-transfection with pG5-Luc)
T2 sequence (P51450 251-516): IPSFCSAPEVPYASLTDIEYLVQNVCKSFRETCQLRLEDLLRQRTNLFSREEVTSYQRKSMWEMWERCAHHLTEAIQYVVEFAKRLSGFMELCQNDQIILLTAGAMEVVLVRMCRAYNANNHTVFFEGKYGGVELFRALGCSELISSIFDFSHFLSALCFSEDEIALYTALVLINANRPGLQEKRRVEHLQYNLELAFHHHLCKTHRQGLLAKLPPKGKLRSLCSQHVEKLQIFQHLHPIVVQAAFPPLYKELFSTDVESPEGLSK
Method: as §1, §2, §3, §4, §5, §6, §7

`CC(C)(C)COc1ccc(C23CCCC2=NNC(=O)N3)cc1Cl` (racemic) [Example 1, 4a-[3-Chloro-4-(2,2-dimethyl-propoxy)phenyl]-2,4,4a,5,6,7-hexahydro-cyclopenta[1,2,4]triazin-3-one] showed an EC50 [1] of 1.69 µM and an EC50 [2] of 0.536 µM.
`CC(C)(C)CCc1ccc(C23CCC(C)(C)C2=CN(CCCC(=O)O)C(=O)N3)cc1` (racemic) [Example 2] showed an EC50 [1] of 0.03 µM and an EC50 [2] of 0.022 µM.
`CCOC(=O)CCN1C=C2CN(C(=O)OC(C)(C)C)CC2(c2ccc(CCC(C)(C)C)c(Cl)c2)NC1=O` (racemic) [Example 13] gave an EC50 [1] of 5.7 µM and an EC50 [2] of 5.37 µM.
Compound `CC(=O)N1CC2=CN(CCC(=O)O)C(=O)NC2(c2ccc(CCC(C)(C)C)c(Cl)c2)C1` (racemic) [Example 14] has an EC50 [1] of 2.88 µM and an EC50 [2] of 3.8 µM.
Compound `CC(C)(C)CCc1ccc(C23CCCC2=CNC(=O)N3)cc1Cl` (racemic) [Example 23] has an EC50 [1] of 0.224 µM and an EC50 [2] of 0.106 µM.
Compound `CC(C)(C)CCc1ccc(C23CCCC2=CN(CCC(=O)O)C(=O)N3)cc1Cl` (racemic) [Example 24] has an EC50 [1] of 0.332 µM and an EC50 [2] of 0.126 µM.
`CC(=O)NCC1CCC2(c3ccc(CCC(C)(C)C)c(Cl)c3)NC(=O)N(CCC(=O)O)C=C12` (racemic) [Example 30] showed an EC50 [1] of over 20 µM and an EC50 [2] of over 20 µM.
Compound `CC(C)(C)CCc1ccc(C23CCC(CC#N)C2=CN(CCC(=O)O)C(=O)N3)cc1Cl` (racemic) [Example 31] has an EC50 [1] of 0.048 µM and an EC50 [2] of 0.048 µM.
Work on `CC(C)(C)COc1ccc(C23CCCCC2=NNC(=O)N3)cc1Cl` (racemic) [Example 36] yielded an EC50 [1] of 0.435 µM and an EC50 [2] of 0.071 µM.
Compound `CC(C)(C)CCc1ccc(C23CCCCC2=CN(CCC(=O)O)C(=O)N3)cc1Cl` (racemic) [Example 39] has an EC50 [1] of 0.032 µM and an EC50 [2] of 0.021 µM.
`CC1=C2CCCCC2(c2ccc(CCC(C)(C)C)c(Cl)c2)NC(=O)N1CCC(=O)O` (racemic) [Example 42] showed an EC50 [1] of 0.29 µM and an EC50 [2] of 0.139 µM.
`CC(C)(C)CCc1ccc(C23CCCC(CCOCc4ccccc4)C2=CN(CCC(=O)O)C(=O)N3)cc1Cl` (racemic) [Example 43] was tested, and the EC50 [1] was 0.043 µM and the EC50 [2] was 0.159 µM.
Compound `CC(C)(C)CCc1ccc(C23CCCC(CCO)C2=CN(CCC(=O)O)C(=O)N3)cc1Cl` (racemic) [Example 44] has an EC50 [1] of 1.27 µM and an EC50 [2] of 0.482 µM.
With `CCOC(=O)CCN1C=C2C(CC(=O)O)CCCC2(c2ccc(CCC(C)(C)C)c(Cl)c2)NC1=O` (racemic) [Example 45] the EC50 [1] was 1.63 µM and the EC50 [2] was 0.84 µM.
`COCCC1CCCC2(c3ccc(CCC(C)(C)C)c(Cl)c3)NC(=O)N(CCC(=O)O)C=C12` (racemic) [Example 46] gave an EC50 [1] of 0.302 µM and an EC50 [2] of 0.211 µM.
`CCOC(=O)CCN1C=C2C(CN)CCCC2(c2ccc(CCC(C)(C)C)c(Cl)c2)NC1=O` (racemic) [Example 47] gave an EC50 [1] of over 8 µM and an EC50 [2] of 8.83 µM.
Compound `CC(C)(C)CCc1ccc(C23CCCC(CCOS(C)(=O)=O)C2=CN(CCC(=O)O)C(=O)N3)cc1Cl` (racemic) [Example 48] has an EC50 [1] of 1.99 µM and an EC50 [2] of 1.87 µM.
Work on `CCOC(=O)CCN1C=C2C(CCNC)CCCC2(c2ccc(CCC(C)(C)C)c(Cl)c2)NC1=O` (racemic) [Example 49] yielded an EC50 [1] of over 3.2 µM and an EC50 [2] of over 3.2 µM.
In the case of `CCOC(=O)CCN1C=C2C(CCN(C)C)CCCC2(c2ccc(CCC(C)(C)C)c(Cl)c2)NC1=O` (racemic) [Example 50], the EC50 [1] was over 8 µM and the EC50 [2] was 7.48 µM.
`CC(C)(C)CCc1ccc(C23CCCC(CC(N)=O)C2=CN(CCC(=O)O)C(=O)N3)cc1Cl` (racemic) [Example 51] was tested, and the EC50 [1] was 4.97 µM and the EC50 [2] was 1.8 µM.
`CC(C)(C)CCc1ccc(C23CCCC(CC#N)C2=CN(CCC(=O)O)C(=O)N3)cc1Cl` (racemic) [Example 52] gave an EC50 [1] of 0.018 µM and an EC50 [2] of 0.029 µM.
Work on `CC(C)(C)CCc1ccc(C23CCCC(CO)C2=CN(CCC(=O)O)C(=O)N3)cc1Cl` (racemic) [Example 55] yielded an EC50 [1] of 0.093 µM and an EC50 [2] of 0.058 µM.
For `COCC1CCCC2(c3ccc(CCC(C)(C)C)c(Cl)c3)NC(=O)N(CCC(=O)O)C=C12` (racemic) [Example 56], the EC50 [1] was 0.02 µM and the EC50 [2] was 0.029 µM.
For `CC1CCCC2(c3ccc(CCC(C)(C)C)c(Cl)c3)NC(=O)N(CCC(=O)O)C=C12` (racemic) [Example 57], the EC50 [1] was 0.034 µM and the EC50 [2] was 0.021 µM.
`CC(C)(C)CCc1ccc(C23COCCC2=CN(CCC(=O)O)C(=O)N3)cc1Cl` (racemic) [Example 58] showed an EC50 [1] of 0.033 µM and an EC50 [2] of 0.02 µM.
In the case of `CC(C)CCOc1ccc(C23CCCCC2=CN(CCC(=O)O)C(=O)N3)cc1Cl` (racemic) [Example 59], the EC50 [1] was 0.279 µM and the EC50 [2] was 0.149 µM.
`CC(C)(C)COc1ccc(C23CCCCC2=CN(CCC(=O)O)C(=O)N3)cc1Cl` (racemic) [Example 60] showed an EC50 [1] of 0.118 µM and an EC50 [2] of 0.072 µM.
`CC(C)(C)CCOc1ccc(C23CCCCC2=CN(CCC(=O)O)C(=O)N3)cc1Cl` (racemic) [Example 61] showed an EC50 [1] of 0.106 µM and an EC50 [2] of 0.068 µM.
`O=C(O)CCN1C=C2CCCCC2(c2ccc(OCCC3CCC3)c(Cl)c2)NC1=O` (racemic) [Example 62] showed an EC50 [1] of 0.151 µM and an EC50 [2] of 0.099 µM.
Compound `CC(C)(C)CCc1ccc(C23CCC(F)(F)CC2=CN(CCC(=O)O)C(=O)N3)cc1Cl` (racemic) [Example 63] has an EC50 [1] of 0.022 µM and an EC50 [2] of 0.022 µM.
For `CC(C)(C)CCc1ccc(C23CC(C)(C)CCC2=CN(CCC(=O)O)C(=O)N3)cc1Cl` (racemic) [Example 64], the EC50 [1] was 0.034 µM and the EC50 [2] was 0.052 µM.
`O=C(O)CCN1C=C2CCCCC2(c2ccc(OCC3(C(F)(F)F)CC3)c(Cl)c2)NC1=O` (racemic) [Example 65] was tested, and the EC50 [1] was 1.16 µM and the EC50 [2] was 0.16 µM.
`CC1CCCC2(c3ccc(CCC(C)(C)C)c(Cl)c3)NC(=O)N(C34CC(C(=O)O)(C3)C4)C=C12` (racemic) [Example 73] was tested, and the EC50 [1] was 0.014 µM and the EC50 [2] was 0.027 µM.
`CC(C)(C)CCc1ccc(C23CCC(C)(C)CC2=CN(CCC(=O)O)C(=O)N3)cc1Cl` (racemic) [Example 74] showed an EC50 [1] of 0.016 µM and an EC50 [2] of 0.024 µM.
Work on `CC(C)(C)CCc1ccc(C23CCC(C)(C)C2=CN(CCC(=O)O)C(=O)N3)cc1Cl` (single isomer, unassigned) [Example 3, 3-{7a-[3-Chloro-4-(3,3-dimethyl-butyl)phenyl]-5,5-dimethyl-2-oxo-1,2,5,6,7,7a-hexahydro-cyclopentapyrimidin-3-yl}propionate] yielded an EC50 [1] of 0.008 µM and an EC50 [2] of 0.013 µM.
`CC(C)(C)CCc1ccc(C23CCC(C)(C)C2=CN(CCC(=O)O)C(=O)N3)cc1Cl` (single isomer, unassigned) [Example 4] was tested, and the EC50 [1] was 1.02 µM and the EC50 [2] was 1.01 µM.
